Results: the NIST ThermoML archive (doi:10.1016/j.jct.2018.02.017)

Key:
[1] = for Triple point temperature: DSC; for mass density: 100 kPa, Liquid, Vibrating tube method
[2] = Molar enthalpy of transition or fusion; conditions: DSC
[3] = mn = molality of the nth substance listed, in mol/kg; conditions: 298.15 K, 100 kPa, Liquid, Falling or rolling sphere viscometry
[4] = xn = mol fraction of the nth substance listed; conditions: 100 kPa, Liquid, Vibrating tube method
[5] = excess molar enthalpy (molar enthalpy of mixing); xn = mol fraction of the nth substance listed; conditions: 100 kPa, Liquid, Flow calorimetry

CCCC[N+]1(C)CCCC1.O=S(=O)([O-])C(F)(F)C(F)F
Conditions | Molar enthalpy of transition or fusion, [2] [kcal/mol] | Triple point temperature, [1] [K]
Crystal 1 | 2.61 | 318.5
Crystal 2 | 3.01 | 279.3

CCCCn1cc[n+](C)c1.O=S(=O)([O-])C(F)(F)C(F)F
[1]
Conditions | mass density [kg/m3]
288.15 K | 1355.49
293.15 K | 1351.46
298.15 K | 1347.31
303.15 K | 1343.19
308.15 K | 1339.08
313.15 K | 1335.01
318.15 K | 1330.9
323.15 K | 1326.84
328.15 K | 1322.8
333.15 K | 1318.77

CCCC[N+]1(C)CCCC1.O=S(=O)([O-])C(F)(F)C(F)F + O
[3]
Conditions | viscosity [mPa·s]
m1 = 0.01177 | 0.8996
m1 = 0.02018 | 0.9033
m1 = 0.02912 | 0.9095
m1 = 0.05104 | 0.9233
m1 = 0.07113 | 0.934
m1 = 0.09124 | 0.9463

CCCCn1cc[n+](C)c1.O=S(=O)([O-])C(F)(F)C(F)F + O
[3]
Conditions | viscosity [mPa·s]
m1 = 0.0216 | 0.9005
m1 = 0.02818 | 0.9042
m1 = 0.05086 | 0.9161
m1 = 0.06272 | 0.9229
m1 = 0.0705 | 0.9269
m1 = 0.0811 | 0.9328

CCCC[N+]1(C)CCCC1.N#CN=C=[N-] [1-butyl-1-methylpyrrolidinium dicyanamide]
[1]
Conditions | mass density [kg/m3]
288.15 K | 1019.08
293.15 K | 1016.25
298.15 K | 1013.43
303.15 K | 1010.62
308.15 K | 1007.83
313.15 K | 1005.05
318.15 K | 1002.29

CCCC[N+]1(C)CCCC1.N#CN=C=[N-] [1-butyl-1-methylpyrrolidinium dicyanamide] + O
Conditions | excess molar enthalpy, [5] [kcal/mol] | mass density, [4] [kg/m3]
288.15 K, x1 = 0.000366 | -0.00048 | 999.262
288.15 K, x1 = 0.000732 | -0.000918 | 999.415
288.15 K, x1 = 0.001097 | -0.00134 | 999.558
288.15 K, x1 = 0.001462 | -0.00175 | 999.693
288.15 K, x1 = 0.001827 | -0.00212 | 999.827
288.15 K, x1 = 0.002192 | – | 999.945
298.15 K, x1 = 0.000366 | -0.00027 | 997.161
298.15 K, x1 = 0.000732 | -0.000516 | 997.266
298.15 K, x1 = 0.001098 | -0.000743 | 997.365
298.15 K, x1 = 0.001463 | -0.000963 | 997.458
298.15 K, x1 = 0.001828 | -0.00117 | 997.547
298.15 K, x1 = 0.002193 | -0.00138 | 997.632
308.15 K, x1 = 0.000366 | -6.21e-05 | 994.108
308.15 K, x1 = 0.000731 | -0.0001 | 994.175
308.15 K, x1 = 0.001097 | -0.000127 | 994.237
308.15 K, x1 = 0.001462 | -0.00016 | 994.294
308.15 K, x1 = 0.001827 | -0.000201 | 994.349
308.15 K, x1 = 0.002192 | -0.00022 | 994.4
318.15 K, x1 = 0.000366 | 0.000141 | 990.258
318.15 K, x1 = 0.000731 | 0.000301 | 990.295
318.15 K, x1 = 0.001097 | 0.000471 | 990.326
318.15 K, x1 = 0.001462 | 0.000643 | 990.353
318.15 K, x1 = 0.001826 | 0.00082 | 990.377
318.15 K, x1 = 0.002192 | 0.000997 | 990.398

[3]
Conditions | viscosity [mPa·s]
m1 = 0.01007 | 0.8956
m1 = 0.01538 | 0.8983
m1 = 0.03088 | 0.9043
m1 = 0.04839 | 0.9119
m1 = 0.0703 | 0.921
m1 = 0.09073 | 0.9308
